Laboratory results taken from ChEMBL document CHEMBL1250451, “Mechanistic insights into a Ca2+-dependent family of alpha-mannosidases in a human gut symbiont” (Nat Chem Biol, 2010).
One block for each compound: values may come before it. Activity calls are given as the source filed them. The rule behind the calls is not given here.

Key:
Type in all cases: protein assay
[1] = molecular target: T1, Glycoside hydrolase family 92 (BT_3963) (Bacteroides thetaiotaomicron) (UniProt Q8A0Q8); assay: Activity of Bacteroides thetaiotaomicron GH92 alpha-mannosidase GH92 alpha-mannosidase 3963 assessed as mannose release at 1 mM after 16 hrs by HPLC relative to untreated control after 16 hrs by HPLC
T1 sequence (whole entry): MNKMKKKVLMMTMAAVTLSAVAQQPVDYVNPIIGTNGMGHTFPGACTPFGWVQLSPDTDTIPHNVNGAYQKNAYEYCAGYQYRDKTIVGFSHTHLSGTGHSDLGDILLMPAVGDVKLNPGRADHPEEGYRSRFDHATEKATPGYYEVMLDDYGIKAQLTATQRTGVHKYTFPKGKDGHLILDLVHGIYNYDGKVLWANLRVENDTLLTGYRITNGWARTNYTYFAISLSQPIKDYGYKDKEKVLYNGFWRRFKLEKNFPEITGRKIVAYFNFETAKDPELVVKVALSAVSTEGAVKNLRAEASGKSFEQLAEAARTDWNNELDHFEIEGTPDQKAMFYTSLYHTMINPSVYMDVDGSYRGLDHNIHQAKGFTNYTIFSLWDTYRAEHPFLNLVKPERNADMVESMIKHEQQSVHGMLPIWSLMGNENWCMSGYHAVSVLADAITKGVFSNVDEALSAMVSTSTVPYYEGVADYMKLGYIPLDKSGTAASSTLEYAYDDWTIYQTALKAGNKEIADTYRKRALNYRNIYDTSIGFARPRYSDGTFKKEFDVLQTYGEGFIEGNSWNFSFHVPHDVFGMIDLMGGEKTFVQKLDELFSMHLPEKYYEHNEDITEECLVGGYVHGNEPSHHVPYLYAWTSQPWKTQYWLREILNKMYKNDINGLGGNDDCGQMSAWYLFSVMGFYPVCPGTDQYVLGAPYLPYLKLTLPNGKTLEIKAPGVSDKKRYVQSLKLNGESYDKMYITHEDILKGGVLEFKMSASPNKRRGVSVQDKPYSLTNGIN

[2] = molecular target: T2, Alpha-1,2-mannosidase (BT_3990) (Bacteroides thetaiotaomicron) (UniProt Q8A0N1); assay: Activity of Bacteroides thetaiotaomicron GH92 alpha-mannosidase 3990 assessed as recovery of enzyme activity at 1 mM in presence of 7 mM Ti(3+) ions and in presence of 5 mM EGTA in 100 mM pH 7 MOPS buffer relative to enzyme activity in presence of calcium
T2 sequence (whole entry): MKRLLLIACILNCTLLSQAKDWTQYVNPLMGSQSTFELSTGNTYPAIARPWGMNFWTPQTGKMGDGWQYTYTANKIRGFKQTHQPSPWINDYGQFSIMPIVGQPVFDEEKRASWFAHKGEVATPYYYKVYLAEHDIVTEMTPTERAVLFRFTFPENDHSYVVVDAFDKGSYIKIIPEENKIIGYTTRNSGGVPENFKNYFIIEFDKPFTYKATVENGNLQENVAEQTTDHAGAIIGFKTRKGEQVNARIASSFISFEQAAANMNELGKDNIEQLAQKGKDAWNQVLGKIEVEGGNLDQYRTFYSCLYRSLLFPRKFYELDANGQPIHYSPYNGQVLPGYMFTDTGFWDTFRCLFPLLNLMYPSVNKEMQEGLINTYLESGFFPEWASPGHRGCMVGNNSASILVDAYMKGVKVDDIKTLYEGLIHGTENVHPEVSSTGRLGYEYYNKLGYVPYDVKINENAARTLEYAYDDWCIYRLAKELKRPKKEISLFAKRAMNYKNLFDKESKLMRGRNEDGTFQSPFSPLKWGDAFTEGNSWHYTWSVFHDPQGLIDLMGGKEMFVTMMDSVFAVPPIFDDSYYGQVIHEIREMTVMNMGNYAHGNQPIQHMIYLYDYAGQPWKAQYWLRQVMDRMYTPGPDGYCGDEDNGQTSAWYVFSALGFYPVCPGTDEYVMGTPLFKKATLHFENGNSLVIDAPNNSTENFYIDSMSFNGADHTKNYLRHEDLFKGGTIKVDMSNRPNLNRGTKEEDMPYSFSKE

[3] = molecular target: T3, Alpha-1,2-mannosidase (BT_2199) (Bacteroides thetaiotaomicron) (UniProt Q8A5N9); assay: Activity of Bacteroides thetaiotaomicron GH92 alpha-mannosidase 2199 assessed as recovery of enzyme activity at 1 mM in presence of 7 mM Ti(3+) ions and in presence of 5 mM EDTA in 100 mM pH 7 MOPS buffer relative to enzyme activity in presence of calcium
T3 sequence (whole entry): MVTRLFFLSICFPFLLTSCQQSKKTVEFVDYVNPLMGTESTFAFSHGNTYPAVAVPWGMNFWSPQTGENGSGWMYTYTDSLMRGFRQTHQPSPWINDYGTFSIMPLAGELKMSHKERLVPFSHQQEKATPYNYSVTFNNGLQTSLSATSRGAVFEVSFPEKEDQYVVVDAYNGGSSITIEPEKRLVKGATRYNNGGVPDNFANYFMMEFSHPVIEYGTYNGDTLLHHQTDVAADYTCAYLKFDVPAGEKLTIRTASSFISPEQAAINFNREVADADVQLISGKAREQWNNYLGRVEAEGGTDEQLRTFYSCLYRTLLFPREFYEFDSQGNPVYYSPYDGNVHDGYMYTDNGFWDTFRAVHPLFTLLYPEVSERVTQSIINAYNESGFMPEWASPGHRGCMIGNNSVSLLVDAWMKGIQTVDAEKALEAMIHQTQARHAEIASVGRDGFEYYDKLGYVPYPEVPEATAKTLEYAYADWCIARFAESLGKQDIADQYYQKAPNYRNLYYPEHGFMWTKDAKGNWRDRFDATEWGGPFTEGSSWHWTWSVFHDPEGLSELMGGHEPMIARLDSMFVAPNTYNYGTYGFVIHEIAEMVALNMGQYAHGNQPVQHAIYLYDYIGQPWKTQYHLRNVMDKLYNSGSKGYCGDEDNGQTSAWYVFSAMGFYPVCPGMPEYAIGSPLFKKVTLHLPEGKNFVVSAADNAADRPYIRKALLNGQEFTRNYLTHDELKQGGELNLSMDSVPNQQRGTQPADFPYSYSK

[4] = molecular target: T2, Alpha-1,2-mannosidase (BT_3990) (Bacteroides thetaiotaomicron); assay: Activity of Bacteroides thetaiotaomicron GH92 alpha-mannosidase 3990 assessed as recovery of enzyme activity at 1 mM in presence of 7 mM Sr(2+) ions and in presence of 5 mM EDTA in 100 mM pH 7 MOPS buffer relative to enzyme activity in presence of calcium
[5] = molecular target: T3, Alpha-1,2-mannosidase (BT_2199) (Bacteroides thetaiotaomicron); assay: Activity of Bacteroides thetaiotaomicron GH92 alpha-mannosidase 2199 assessed as recovery of enzyme activity at 1 mM in presence of 7 mM Sr(2+) ions and in presence of 5 mM EGTA in 100 mM pH 7 MOPS buffer relative to enzyme activity in presence of calcium
[6] = molecular target: T2, Alpha-1,2-mannosidase (BT_3990) (Bacteroides thetaiotaomicron); assay: Activity of Bacteroides thetaiotaomicron GH92 alpha-mannosidase 3990 assessed as recovery of enzyme activity at 1 mM in presence of 7 mM Ba(2+) ions and in presence of 5 mM EDTA in 100 mM pH 7 MOPS buffer relative to enzyme activity in presence of calcium

Activity [1]: inactive
Compound: OC[C@H]1O[C@H](O[C@H]2[C@H](O)[C@H](O)[C@@H](O)O[C@@H]2CO)[C@@H](O)[C@@H](O)[C@@H]1O

Activity [1]: inactive
Compound: OC[C@H]1O[C@H](OC[C@H]2O[C@H](O)[C@@H](O)[C@@H](O)[C@@H]2O)[C@@H](O)[C@@H](O)[C@@H]1O

The next lines start with the compound.

Compound: OC[C@H]1O[C@H](O[C@H]2[C@@H](O)[C@H](O)[C@@H](CO)O[C@@H]2O)[C@@H](O)[C@@H](O)[C@@H]1O
Activity [1]: inactive

Compound: OC[C@H]1O[C@H](O[C@@H]2[C@H](O)[C@@H](O)O[C@H](CO)[C@H]2O)[C@@H](O)[C@@H](O)[C@@H]1O
Activity [1]: inactive

Compound: O=[N+]([O-])c1ccc(O[C@H]2O[C@H](CO)[C@@H](O)[C@H](O)[C@@H]2O)cc1
Activity [2]: 0%
Activity [3]: 0%
Activity [4]: 14%
Activity [5]: 30%
Activity [6]: 0%
